How the values were obtained:
[1] = Ulcerogenic activity in rat assessed as ulcer index at 50 mg/kg, po administered once daily for 3 consecutive days and measured after 1 hr post last dose; format: toxicity, organism-based; settings: in vivo, 72 h, time 3 day
[2] = tested on: Rattus norvegicus; assay: Antiinflammatory activity against po dosed Wistar albino rat model of carrageenan-induced foot paw edema after 3 hrs; format: functional
[3] = target: T1, Prostaglandin G/H synthase 1 (Ovis aries, UniProt P05979); assay: Inhibition of Ovine COX-1 assessed as decrease in prostaglandin production using arachidonic acid as substrate pretreated for 15 mins followed by substrate addition and measured after 2 mins by enzyme immunoassay
T1 sequence (P05979 whole entry): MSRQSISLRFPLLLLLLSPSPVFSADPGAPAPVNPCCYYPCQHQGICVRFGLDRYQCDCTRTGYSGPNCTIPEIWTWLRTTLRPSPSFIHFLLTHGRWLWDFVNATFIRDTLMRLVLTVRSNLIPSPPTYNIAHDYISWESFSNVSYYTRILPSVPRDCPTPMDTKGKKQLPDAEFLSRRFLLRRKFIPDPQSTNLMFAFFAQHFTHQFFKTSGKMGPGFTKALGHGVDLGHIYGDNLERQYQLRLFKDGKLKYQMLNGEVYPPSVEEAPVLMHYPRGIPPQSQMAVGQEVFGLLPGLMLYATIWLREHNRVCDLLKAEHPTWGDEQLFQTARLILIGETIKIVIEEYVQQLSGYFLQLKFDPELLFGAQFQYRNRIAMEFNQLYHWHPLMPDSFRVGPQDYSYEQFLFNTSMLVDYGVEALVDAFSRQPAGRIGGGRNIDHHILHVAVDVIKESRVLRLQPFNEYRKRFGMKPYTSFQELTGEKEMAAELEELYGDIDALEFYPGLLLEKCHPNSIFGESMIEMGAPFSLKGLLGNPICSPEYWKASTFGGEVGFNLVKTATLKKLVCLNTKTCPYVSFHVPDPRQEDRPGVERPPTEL

[4] = Ulcerogenic activity in rat assessed as average number of ulcers at 50 mg/kg, po administered once daily for 3 consecutive days and measured after 1 hr post last dose (reference value: 0); format: toxicity, organism-based; settings: in vivo
[5] = Ulcerogenic activity in rat assessed as incidence of ulcer at 50 mg/kg, po administered once daily for 3 consecutive days and measured after 1 hr post last dose (reference value: 0%); format: toxicity, organism-based; settings: in vivo
[6] = Inhibition of soya bean 15-LOX by enzyme immunoassay; set-up: species or system Glycine max
[7] = Ulcerogenic activity in rat assessed as average severity of ulcers at 50 mg/kg, po administered once daily for 3 consecutive days and measured after 1 hr post last dose (reference value: 0); format: toxicity, organism-based; settings: in vivo

SMILES | UI [1] | ED50 [2] [µmol/kg] | IC50 [3] [µM] | Activity [4] | Activity [5] [%] | IC50 [6] [µM] | Activity [7]
COc1cccc(/C=C/C(=O)c2sc(-c3ccccc3)nc2C)c1OC | 6.63 | 59 | 7.2 | 0.6 | 50 | 6.22 | 1.03
COc1ccc(/C=C/C(=O)c2sc(-c3ccccc3)nc2C)cc1OC | 3.87 | 80 | 3.9 | 0.3 | 30 | 2.8 | 0.57
COC(=O)/C(O)=C/C(=O)c1sc(-c2ccccc2)nc1C | 3.79 |  |  | 0.4 | 30 |  | 0.39
COc1ccc([C@@H]2CC(c3sc(-c4ccccc4)nc3C)=NN2c2ccc(S(C)(=O)=O)cc2)cc1OC | 4.35 | 52 | 8.4 | 0.5 | 30 | 7.4 | 0.85
COc1cccc([C@@H]2CC(c3sc(-c4ccccc4)nc3C)=NN2c2ccc(S(N)(=O)=O)cc2)c1OC | 2.93 | 47 | 10.2 | 0.2 | 20 | 8.9 | 0.73
COc1ccc([C@@H]2CC(c3sc(-c4ccccc4)nc3C)=NN2c2ccc(S(N)(=O)=O)cc2)cc1OC | 4.08 | 55 | 8.6 | 0.4 | 30 | 7.4 | 0.68
COc1cc([C@@H]2CC(c3sc(-c4ccccc4)nc3C)=NN2c2ccc(S(N)(=O)=O)cc2)cc(OC)c1OC | 3.83 | 45 | 5.8 | 0.3 | 30 | 4.7 | 0.53
COc1cccc([C@@H]2CC(c3sc(-c4ccccc4)nc3C)=NN2c2ccc(S(C)(=O)=O)cc2)c1OC | 2.65 | 70 | 6.5 | 0.4 | 20 | 5.6 | 0.25
COC(=O)c1cc(-c2sc(-c3ccccc3)nc2C)nn1-c1ccc(S(N)(=O)=O)cc1 | 2.67 | 74 | 6.5 | 0.5 | 20 | 6.02 | 0.17
COc1cc([C@@H]2CC(c3sc(-c4ccccc4)nc3C)=NN2c2ccc(S(C)(=O)=O)cc2)cc(OC)c1OC | 2.78 | 87 | 7.5 | 0.6 | 20 | 6.4 | 0.18
COc1cc(/C=C/C(=O)c2sc(-c3ccccc3)nc2C)cc(OC)c1OC | 3.92 | 45 | 6.7 | 0.4 | 30 | 5.8 | 0.52
COC(=O)c1cc(-c2sc(-c3ccccc3)nc2C)nn1-c1ccc(S(C)(=O)=O)cc1 | 2.48 | 90 | 6.8 | 0.2 | 20 | 5.9 | 0.28
CC(=O)Oc1ccccc1C(=O)O [ASPIRIN] |  | 714 |  |  |  |  | 
Cc1ccc(-c2cc(C(F)(F)F)nn2-c2ccc(S(N)(=O)=O)cc2)cc1 [CELECOXIB] | 2.9 | 47 |  | 0.4 | 20 |  | 0.5
Cc1ccc(Cl)c(Nc2ccccc2C(=O)O)c1Cl [MECLOFENAMATE SODIUM] |  |  |  |  |  | 5.64 | 

From ChEMBL document CHEMBL4715712 (Bioorg Med Chem Lett, 2016)
